Experiments:
Format in all cases: in vivo, zebrafish
cutaneous sensory axons = assay: Axon branch number in caudal fin (acetylated tubulin staining); conditions: for axon branch number: 96 hr; for axon branches in the caudal fin: 96 hr paclitaxel
Description: The stock solution was divided into 20-30 μl aliquots and stored at −20 °C until use (maximal 6 months). Immediately prior to use, paclitaxel was diluted in Ringer's solution and added to dechorionated larval zebrafish. The larval fish were placed individually or in small groups into wells of a 12-well plate containing the treatment solutions. The control group was 0.05% DMSO. Plates were incubated at 28.5 °C and protected from light. Treatment lengths are indicated in the Drawings, Description of the Drawings, and Examples where appropriate. […] EMD534085, Eg5 inhibitor (MedChemExpress, Cat. No. HY-15000) was diluted in 100% DMSO to make a 10 mM stock solution and stored at −20 °C. […] The solutions were exchanged every 48 hr.
Larval fish were transferred into […] glass vials and fixed in 4% paraformaldehyde (PFA)/1× Phosphate-buffered saline (PBS) for 1.5 hr at room temperature, with gentle rocking. Following a 5-minute incubation in 1×PBS+0.1% Tween-20 (PBST), zebrafish were permeabilized in 1×PBS+0.1% Triton X-100 for 10-30 min. Larval fish were transferred into 2 ml reaction tubes and incubated in blocking buffer (1×PBST+5% BSA) for 30 min at room temperature, with rocking. Larval fish were further incubated overnight in antibody solution (Millipore Sigma, Cat. No. AB3201, 1:300 rabbit anti-GluTub; Sigma, Cat No. T6793, 1:500 mouse anti-acetylated tubulin) in blocking buffer at 4 °C, on a rotator. The next morning, larval fish were transferred into 6-well plates and washed 4×15 min in 1×PBST at room temperature, with rocking. This was followed by incubation in secondary antibody (goat anti-rabbit Cy5, Abcam, Cat. No. ab97077; goat anti-mouse Cy3, Abcam, Cat. No. ab97035) and 1:10,000 Hoechst 33342 (ThermoFisher Scientific, Cat. No. 62249, 20 mM solution) in blocking buffer for 1 hr at room temperature, with rocking. Fish were covered to avoid bleaching. Fish were washed for 4×15 min in 1×PBST at room temperature, with rocking, and immediately mounted for imaging on glass bottom petri dishes (Spectrum Laboratory Products, Cat. No. 750-10403-UE) using 1% agarose (Thermo Fisher Scientific, Cat. No. 16520050). A 1:200 dilution was used for mouse alpha-tubulin antibody (Proteintech, Cat. No. 66031-1) and a 1:1,000 dilution of donkey anti-mouse IgG Alexa488 (ThermoFisher Scientific, Cat. No. A-21202) for secondary detection. For Nox1 immunostaining, a 1:300 dilution of primary antibody (Anti-NOX1 Rabbit Polyclonal Antibody, Avantar, Cat. No. 102164-796) and a 1:1,000 dilution of secondary goat anti-rabbit Cy2 (Abcam, Cat. No. ab6940) antibody was used. Eg5 antibody (Abcam, Cat. No. 61199) was used at a 1:100 and secondary goat anti-rabbit Cy2 (Abcam, Cat. No. ab6940) at 1:1,000 dilution.
Axon branch number quantifications were performed by drawing a 50 μm line across the dorsal, medial, and ventral caudal fin edge region at a distance of 100 μm parallel to the fin edge (which was determined to be the most reliable region to quantify distal branch numbers). Axons traversing this line were counted and averaged per treatment group. Axonal fluorescence measurements were taken using the Imaris Spots function by manually placing spots along the axon and using the fluorescence intensity profile measurements MatLab tool.
Stretching was performed after 96 hr treatment, followed by 2 hr post-stretch fixation, and staining for detection of acetylated tubulin in axons.
To further validate Eg5 as the pharmacological target of EMD534085 in axon regeneration, zebrafish injected with kif11 CRISPR oligo were also analyzed.

[1] = tested on: caudal fin keratinocytes (mitosis); assay: Keratinocyte mitosis, 12 hr time-lapse imaging of h2a:h2a-GFP fish
Description: (§1) Fish were anesthetized in 2-phenoxyethanol (1:1000) in Ringer's solution prior to imaging and mounted in 1.2% agarose. EB3-GFP and Tau-Bfp2 were imaged with a scan speed kept at the maximum level in single slice mode with […] for a total of 60s to capture microtubule dynamics. h2a:H2A-GFP time-lapse recordings were produced (Zeiss LSM880 AiryScan confocal microscope) with 1 μm sections recorded every 10 min for 12 hr using 800×800 pixels. All other live fish were imaged using 1024×1024 pixels.
(§2) Cell divisions and cell death were manually counted in 12 hr movie recordings. The caudal fin was divided into 6 quadrants and individual cells in each quadrant were manually followed over 12 hr at least 3 times sequentially to capture cell divisions and dying cell behaviors.
To examine the effects of EMD534085 on mitosis, cell divisions in keratinocytes expressing nuclear h2a-h2a:GFP were quantified using 12 hr time-lapse imaging. […] The few divisions present were mostly restricted to the distal notochord region, with an average of 0.96±0.20/12 hr divisions at 3dpf and 1.16±0.44/12 hr at 6dpf in this region (shown in FIG. 6A).

[2] = tested on: caudal fin keratinocytes (cell death); assay: Keratinocyte cell death, 12 hr time-lapse imaging
Description: as §1, §2

[3] = tested on: microtubules in keratinocytes; assay: EB3-GFP microtubule growth dynamics in keratinocytes
Description: as §1
EB3-GFP tracking was done in Fiji using the MTrackJ plugin to trace microtubules over time and create Kymographs, measure the velocity, track length, and comet duration. Tracking was also performed using the Spots and Surface tools in Imaris. Settings were initially automatically detected to fit the fluorescence and subsequently modified manually for improved fit. Settings were maintained between treatment groups.
To validate this, microtubule growth dynamics were characterized in basal keratinocytes expressing the microtubule plus-end binding protein, EB3-GFP (courtesy of R. Koester) (Distel et al., 2010, The Journal of cell biology 191: 875-890). […] However, a small proportion of keratinocytes also harbored uniformly labelled EB3-positive microtubules, consistent with previous observations in murine axons (Kleele et al., 2015, Proceedings of the National Academy of Sciences of the United States of America 112: 7501-7506). […] This behavior therefore contrasts the curved conformation of stable dfMTs.

[4] = 22 μM paclitaxel, alone or with EMD534085, 96 hr

SMILES | axon branch number (cutaneous sensory axons; EMD534085 alone) | mitotic divisions per animal ([1]; EMD534085 alone, 96 hr) | cell death ([2]; EMD534085 alone, 96 hr) | paclitaxel-dependent microtubule growth dynamics ([3]; EMD534085 with 22 μM paclitaxel) | axon branch number (cutaneous sensory axons; 100 nM paclitaxel, alone or with 48 hr EMD534085) | axon branch number (cutaneous sensory axons; 22 μM paclitaxel, alone or with EMD534085) | axon branches in the caudal fin (cutaneous sensory axons; cyba−/− fish) | axon degeneration after stretching (cutaneous sensory axons; paclitaxel-treated and stretched cyba−/− mutants) | axon branches in the caudal fin (cutaneous sensory axons; wildtype) | mitotic divisions per animal ([1]; 100 nM paclitaxel, 96 hr) | mitotic divisions per animal [1, 4] | cell death ([2]; 100 nM paclitaxel, alone or with EMD534085, 96 hr) | cell death [2, 4] | keratinocytes with uniform EB3 labelling ([3]; 22 μM paclitaxel, 96 hr) | comet duration ([3]; paclitaxel, 3 hr) | growth velocity and track length of microtubules ([3]; paclitaxel, 3 hr) | keratinocytes with uniform EB3 labelling ([3]; paclitaxel, 3 hr) | keratinocytes with uniform EB3 labelling ([3]; paclitaxel, 48 hr) | linearity of microtubules ([3]; paclitaxel, 48 hr and 96 hr)
CN(C)CCNC(=O)NC[C@H]1CC[C@@H]2[C@H](O1)c1cc(C(F)(F)F)ccc1N[C@H]2c1ccccc1 [EMD534085] | 10.25±0.47 branches/50 μm | 1.27±0.46 /12 hr | 0.81±0.26 dying cells/caudal fin | did not alter the effects induced by paclitaxel alone |  |  |  |  |  |  |  |  |  |  |  |  |  |  | 
CC(=O)O[C@H]1C(=O)[C@@]2(C)[C@H]([C@H](OC(=O)c3ccccc3)[C@]3(O)C[C@H](OC(=O)[C@H](O)[C@@H](NC(=O)c4ccccc4)c4ccccc4)C(C)=C1C3(C)C)[C@]1(OC(C)=O)CO[C@@H]1C[C@@H]2O [paclitaxel] |  |  |  |  | 9.86±0.43 branches/50 μm | 7.54±0.56 branches/50 μm | no change was found within the cyba−/− group | rescued in paclitaxel-treated and stretched cyba−/− mutants | a decrease in axon branches | 0.72±0.423 | 1.4±0.67 | 0.18±0.18 dying cells/caudal fin | 0.6±0.3 dying cells/caudal fin | 20.13% | not affected | decreased the growth velocity and track length of microtubules | 19.29% | 10.09% | further enhanced the linearity
